Series [1] in a line: Dynamic light scattering size of SDM and MDM. It counts as physicochemical. To be noted: DLS, drug-loaded SDM or MDM. The protocol: The drug-loaded micellar solutions were diluted 20 times with DD H2O and the samples was equilibrated for 2 min at 25° C. before the measurements. […] The hydrodynamic diameter of PEG-b-PLA micelles was calculated based on the Stokes-Einstein equation. Correlation function was curve fitted by cumulant method to calculate mean size and polydispersion index (PDI). All measurements were repeated three times, and volume-weighted particle sizes were presented as the average diameter with standard deviation.

A short description of series [2]: Physical stability / drug loss from PEG-b-PLA micelles after 24 hours (turbidity, HPLC). It counts as physicochemical. To be noted: for initial drug level in water / drug level @ 24 hr in water / % w/w drug(s) left @ 24 hr: PEG-b-PLA micelles. The method, then: Turbidity measurements were used to evaluate the physical stability of drug-loaded PEG-b-PLA micelles. A CARY 50 BIO UV-Visible spectrophotometer equipped with dip probe was used to measure turbidity. Micellar solutions were diluted six times, for a final concentration of PEG-b-PLA of 5 mg/mL, with DD H2O and filtered through 0.45 μm filter. […] Each measurement was performed in triplicate.

The nature of a further series: physchem. The format is physicochemical. The protocol: The mixture is mixed and sonicated for five minutes. The solvent is then removed by rotoevaporation at approximately 60° C. to provide a film. Hot (˜60° C.) deionized water is added to the oil and the solution is allowed to cool to ˜23° C. The solution is then centrifuged to remove the sediment in a 1.5 mL microtube, at ˜13,200 rpm for 1 minute. The supernatant is collected and filtered through a 0.2 μm PTFE filter.
The resulting solution was dialyzed against H2O in 3500 MWCO tubing (SpectraPor). Resulting micelles were centrifuged at 5000g's for 10 minutes to precipitate unincorporated drug. […] Micelle solutions were concentrated by rotary evaporation under reduced pressure at room temperature, followed by centrifugation (5000g's for 10 minutes).

Series [3] is described as follows: In vitro drug release from PEG-b-PLA micelles (dialysis method). The format is physicochemical. To be noted: 12.5 mM PBS, pH=7.4, 37° C. The protocol:
(§1) SDMs or MDMs were prepared and characterized as described above. Post micelle preparation each sample was diluted with DD H2O, to yield about 0.10 mg/mL of each drug. A volume of 2.5 mL of the prepared sample was loaded into a 3 mL Slide-A-Lyzer® (Thermo Scientific Inc.) dialysis cassette with a MWCO of 20,000 g/mol. Four cassettes were used in each experiment. The cassettes were placed in 2.0 L of buffer which was changed every 3 hours to ensure sink conditions for drug(s) and polymer. A sample of 100 μL was drawn from each cassette at various sampling time intervals and then replaced with 100 μL of fresh buffer. […] The amount of drug(s) in each sample was quantified by HPLC as described above.
Statistical analysis was performed using one-way ANOVA at 5% significance level combined with Tukey's Multiple Comparison Test or t-test at 5% significance level. Curve-fitting analysis using one phase exponential association was used to calculate the half-life (t1/2) of drug in in vitro drug release experiments. Both analyses were performed using GraphPad Prism version 5.00 for Windows, Graph-Pad Software, San Diego Calif. USA, www.graphpad.com.
as §1, with “Post-micelle preparation,” for “Post micelle preparation”, “yield samples of” for “yield”, “reverse phase HPLC.” for “HPLC as described above.”

The conditions of series [4]: dogs; cited from earlier work.
Series [5] is classed as in vivo, rats. To be noted: micelle formulation compared to the standard vehicle that employs CrEL.
A short description of series [6]: % drug loading of PEG-b-PLA micelles (wt drug(s)/wt polymer). It counts as physicochemical. To be noted: all drugs of the SDM or MDM together, PEG-b-PLA (4.2K:1.9K) micelles. The method, then: Drug(s) to polymer w/w percent was calculated for SDM and MDM. PEG-b-PLA micelles were freeze dried, weighed and the amount of drug(s) in the freeze dried sample was quantified by HPLC. The drug w/w percent was calculated as the mass of the drug(s) to the mass of polymer in the freeze dried sample multiplied by 100.

A short description of series [7]: Drug solubilization by PEG-b-PLA micelles (drug level in water, reverse phase HPLC). To be noted: SDM or MDM, PEG-b-PLA (4.2K:1.9K) micelles.
Method: The drug-polymer mixture was dissolved in 0.50 mL acetonitrile (ACN). The ACN was removed at 60° C. under reduced pressure on a rotary evaporator resulting in the formation of a homogenous film, The drug-polymer film was rehydrated with 0.50 mL of DD H2O at 60° C. with gentle agitation resulting in a clear solution of drug-loaded PEG-b-PLA micelles. The micellar solution was filtered using a 0.45 μm filter, and the micelles were characterized in terms of size and loading by Dynamic Light Scattering (DLS) and HPLC respectively.
MDMS were prepared similarly to the SDMs by mixing 2.0 mg of each drug with 15 mg of the polymer. The procedure for the preparation and characterization of these micelles was identical to the SDMs.
The content of drug loaded in PEG-b-PLA micelles was quantified by reverse phase HPLC. The HPLC system used for quantifying was a Shimadzu prominence HPLC system (Shimadzu, JP), consisting of a LC-20AT pump, SIL-20AC HT autosampler, CTO-20AC column oven and a SPD-M20A diode array detector. A sample of 10 μL was injected into a Zorbax SB-C8 Rapid Resolution cartridge (4.6×75 mm, 3.5 micron, Agilent). The column temperature was maintained at 40° C. throughout the run. Two HPLC methods were developed to quantify the amount of the drug(s) loaded in PEG-b-PLA micelles.
The mobile phase was an isocratic mixture of 45% ACN and 54% aqueous phase containing 0.1% phosphoric acid and 1% methanol in DD H2O.
The mobile phase was a gradient mixture of ACN and aqueous phase containing 0.1% phosphoric acid and 1% methanol in DD H2O. […] With both HPLC methods samples were injected twice and reproducible and rapid separation of the drugs was achieved.
Mn of PEG and PLA of PEG-b-PLA was 4,200 and 1,900 g/mol, respectively (APC Inc., UK). ACN was removed by heating at 60° C. and reduced pressure. The resultant dry polymer film containing anti-cancer agent(s) was dissolved by addition of water (0.50 mL) at 60° C. with gentle agitation.
The resultant dry PEG-b-PLA film containing drugs was dissolved by the addition of water (0.50 mL) at 60° C. with gentle agitation.
Series [8] relates to 4T1 murine breast cancer cells. Briefly: In vitro cytotoxicity, resazurin assay, and combination index. The format is cell-based. To be noted: drug(s) in SDM or MDM, 72 hours, unit inferred. The method, then: MCF-7 human breast cancer cells were cultured in DMEM medium while 4T1 murine breast cancer cells, A549 human non-small cell lung cancer cells, and LS180 human colon cancer cells were cultured in RPMI1640 medium. Both media were supplemented with 10% fetal bovine serum (FBS) with antibiotics under 5% CO2 and 37° C. in an incubator. […] Free drugs were dissolved in DMSO, and drug-loaded PEG-b-PLA micelles were in deionized water. […] […] The metabolic conversion of resazurin dye by each viable cancer cell was quantified using a fluorescence cell plate reader (SpectraMax M2, Molecular Devices, USA) to estimate cell viability. […] IC50 values of free drugs and drug-loaded PEG-b-PLA micelles were calculated based on median-effect equation using Compusyn software (ver. 1.0).
(§2) CI values were obtained at IC50 values for 2- or 3-drug combinations. CI<1, C=1, and CI>1 were used as criteria to determine whether 2- or 3-drug combinations are synergistic, additive, and antagonistic, respectively (FIGS. 13-20).

Series [9] concerns MCF-7 human breast cancer cells. The description is as above. To be noted: MCF-7, drug(s) in SDM or MDM (PEG-b-PLA micelles), 72 hours, nM printed in b258 only, PTX/17-AAG 3.2:1, RAP/17-AAG 1:1, RAP/PTX 1:1, RAP/PTX/17-AAG 1:5:1. It counts as cell-based. The method, then:
(§3) MCF-7 human breast cancer cells were cultured in DMEM medium while 4T1 murine breast cancer cells, A549 human non-small cell lung cancer cells, and LS180 human colon cancer cells were cultured in RPMI1640 medium. Both media were supplemented with 10% fetal bovine serum (FBS) with antibiotics under 5% CO2 and 37° C. in an incubator. […] Free drugs were dissolved in DMSO, and drug-loaded PEG-b-PLA micelles were in deionized water. The samples were diluted with cell culture media to make 0.10, 1.0, 10, 100 and 1000 nM in 96 well plates. […] The metabolic conversion of resazurin dye by each viable cancer cell was quantified using a fluorescence cell plate reader (SpectraMax M2, Molecular Devices, USA) to estimate cell viability. […] IC50 values of free drugs and drug-loaded PEG-b-PLA micelles were calculated based on median-effect equation using Compusyn software (ver. 1.0).
as §2

The test system of series [10] is A549 human non-small cell lung cancer cells. The description is as above. The format is cell-based. To be noted: drug(s) in SDM or MDM, 72 hours, unit inferred. The protocol:
as §3, §2

For series [11] the following is noted: drug without micelles; cited from earlier work.
Series [12] is described as follows: Solubilization with Poloxamer F68 (reference example). The format is physicochemical. To be noted: analyte rapamycin. The text has this:
Several polymers that form micelles with drugs were surveyed for solubilizing a paclitaxel-rapamycin-17-AAG drug combination. […] For example, the PEG-PPG-PEG triblock polymer Poloxamer F68 is useful to solubilize many hydrophobic compounds such as resveratrol, a hydrophobic compound with reported anticancer activity. […] In these attempts, the micelles coagulated and deteriorated in aqueous solutions.
Results for forming micelles of the paclitaxel-rapamcyin-17-AAG combination with Poloxamer F68: […]

[13] abbreviates: PTX/17-AAG 4.7:1, RAP/17-AAG 1:1, RAP/PTX 1:1, RAP/PTX/17-AAG 1:5:1.
[14] abbreviates: PTX/17-AAG 4.7:1, RAP/17-AAG 1:1, RAP/PTX 1:1, RAP/PTX/17-AAG 1:5:1, read-out: IC50.

≈ marks a conversion by molar mass, not a printed value. Where “and” joins values, the source holds several entries; their conditions need not be identical. Equal entries are not always repeated. Where two headings read alike, the source gives them in different places.

By solubility is commonly meant how much of the substance goes into solution per volume. A higher solubility goes with a readily soluble substance. The IC50 is the concentration that gives 50% inhibition. `C=CCNC1=C2C[C@@H](C)C[C@H](OC)[C@H](O)[C@@H](C)/C=C(\C)[C@H](OC(N)=O)[C@@H](OC)/C=C\C=C(/C)C(=O)NC(=CC1=O)C2=O` [17-AAG, 17-allylamino-17-demethoxygeldanamycin]: the PEG-b-PLA micelle diameter in series [1] was 39.3 ± 2.9 nm. In addition, in [2] (analyte 17-AAG), the “initial drug level in water” value worked out at 3.90 ± 0.28 mg/mL. For the same compound, the “drug level @ 24 hr in water” value in series [2] (analyte 17-AAG) was found to be 3840 ± 180 µg/mL. Besides, in the series “physchem” (PEG-PLA (12:6 kDa) micelles), the 17-AAG solubilized was determined as 1.5 mg/mL. The solubility in “physchem” (PEG-PLA (12:6 kDa) micelles in water, aqueous with cosolvent or surfactant or cyclodextrin) is ~1500 µg/mL (≈ 2560 µM). In series [3] (release of 17-AAG), this compound showed a first-order rate constant of 0.525 h⁻¹. In addition, the maximum tolerated dose in series [4] is listed as 100-200 mg/m^2/day. Besides, the “Renal clearance (CLrenal)” value in series [5] is recorded as “increased”. Also, the “hepatic clearance (CLhepatic)” value in series [5] is “decreased”. The “% drug loading (wt. drug(s)/wt. polymer)” value in series [6] is 13.0 ± 0.9% and 11.3 ± 0.3%. For the same compound, in series [7] (analyte 17-AAG), the “drug level in water” value amounted to 3900 ± 280 µg/mL. In addition, the IC50 in series [8] (setting [13]) came to 118 ± 10 nM; in series [9], 266 ± 48 nM; in series [10] (setting [13]), 771 ± 163 nM.
Consider `CO[C@H]1/C=C\C=C(/C)C(=O)NC2=CC(=O)C(NCCN(C)C)=C(C[C@@H](C)C[C@H](OC)[C@H](O)[C@@H](C)/C=C(\C)[C@@H]1OC(N)=O)C2=O` [17-DMAG, 17-dimethylamino-ethylamino-17-demethoxygeldanamycin], for which the maximum tolerated dose in [4] was 8 mg/m^2/day.
As to `CC(=O)O[C@@]12CO[C@@H]1C[C@H](O)[C@@]1(C)C(=O)[C@H](O)C3=C(C)[C@@H](OC(=O)[C@H](O)[C@@H](NC(=O)OC(C)(C)C)c4ccccc4)C[C@@](O)([C@@H](OC(=O)c4ccccc4)[C@H]21)C3(C)C` [Docetaxel], the “intrinsic solubility in water” value in series [11] is 5.5 µg/mL. Also, in series [1], the PEG-b-PLA micelle diameter came to 37.3 ± 1.7 nm. Further, in series [2] (SDM, HPLC data), the “drug precipitated at 24 hours” value is listed as ~73%. In addition, in [2] (analyte docetaxel), the “% w/w drug(s) left @ 24 hr” value was found to be 26.8 ± 3.3 % w/w, the “initial drug level in water” value was 4.27 ± 0.44 mg/mL and the “drug level @ 24 hr in water” value is 1140 ± 30 µg/mL. Besides, in series [2] (turbidity, ambient temperature), the “time the micelles were physically stable” value is on record as “approximately 6 hours”. The compound further showed a first-order rate constant in series [3] (release of docetaxel) of 0.379 h⁻¹. In series [6], the “% drug loading (wt. drug(s)/wt. polymer)” value was 14.2 ± 1.5% and 11.5 ± 0.5%. For the same compound, in series [6] (listed as DCTX), the “% drug loading (wt. drug(s)/wt. polymer)” value came to 11.5%. Further, the “drug level in water” value in [7] (analyte docetaxel) amounted to 4270 ± 440 µg/mL. Also, the “drug level in water” value in series [7] (analyte docetaxel, listed as DCTX) was 4270 µg/mL.
Turning to `CO[C@H]1C[C@@H]2CC[C@@H](C)[C@@](O)(O2)C(=O)C(=O)N2CCCC[C@H]2C(=O)O[C@H]([C@H](C)C[C@@H]2CC[C@@H](O)[C@H](OC)C2)CC(=O)[C@H](C)/C=C(\C)[C@@H](O)[C@@H](OC)C(=O)[C@H](C)C[C@H](C)/C=C/C=C/C=C/1C` [Rapamycin], the PEG-b-PLA micelle diameter in [1] stood at 36.9 ± 1.3 nm. Further, the “% w/w drug(s) left @ 24 hr” value in [2] (analyte rapamycin) was determined as 91.5 ± 0.2 % w/w. Also, in [2] (analyte rapamycin), the “initial drug level in water” value came out at 1.84 ± 0.26 mg/mL. For the same compound, the “drug level @ 24 hr in water” value in series [2] (analyte rapamycin) amounted to 1680 ± 230 µg/mL. Also, in series [3] (release of rapamycin), the first-order rate constant is 0.100 h⁻¹ and 0.081 h⁻¹. The “% drug loading (wt. drug(s)/wt. polymer)” value in series [6] came out at 6.6 ± 1.3%. The “drug level in water” value in series [7] (analyte rapamycin) is 1840 ± 260 µg/mL. For the same compound, the values for the IC50 in series [8] (setting [14]), in [9] (read-out: IC50) and in series [10] (setting [14]) were > 100000 nM, 255 ± 37 nM and 590 ± 110 nM, respectively. Further, the loading into micelles in series [12] came to 4%.

(Values after patent publication US8383136B2, “Micelle encapsulation of therapeutic agents” (Wisconsin Alumni Research Foundation, priority 2009, dated 2013).)
